For one assay, the system named is Ih. Particulars: applied intracellularly at 5 or 10 mM (Perkins et al. 1995); cited from earlier work.
Assay [1] has as its system preclinical models of neuropathic pain. Particulars: Chaplan 1999; cited from earlier work.
Another assay concerns CFA-injected rats. Kind of assay: Tactile allodynia (von Frey) in complete Freund's adjuvant (CFA) paw model of inflammatory pain. The class given is in vivo, rat. Particulars: i.p., ZD7288 10 mg/kg, ibuprofen 30 mg/kg, morphine 3 mg/kg, gabapentin 100 mg/kg.
Assay [2] concerns native Ih in normal rat L4 dorsal root ganglion neurons. Description: Whole cell patch clamp of native Ih in dissociated normal rat L4 DRG neurons, lidocaine block. Format: cell-based. The method, then: Lidocaine was tested for its effect on Ih expressed in dissociated L4 dorsal root ganglion neurons from uninjured rats to determine whether this well known Na channel blocker could have other mechanisms of action.
DRG were extirpated, dissociated and cultured 3-4 days on poly-D-lysine coated coverslips as described in Example 10. Ih was measured using the whole cell configuration of the patch clamp technique according to the methods described in Example 10 with the exception that the pipette solution was the solution used in Example 3. Neurons were challenged with a family of hyperpolarizing voltage pulses (−60 mV to −150 mV in increments of 10 mV) from a holding potential of −50 mV. Ih was determined at the end of 600 msec duration test pulses. Lidocaine was bath-applied at neutral pH and the percent inhibition of control Ih was determined after lidocaine achieved steady state block. Plotted is the steady state current observed at −134 mV as a percent of control after incubation of lidocaine at the indicated concentrations. […] Lidocaine block was reversible. Data were obtained from 3 cells having control Ih densities of −1.5, −2.0 and −2.2 pA/pF.
(In general: Patch clamp records ionic current or voltage across a cell membrane.)

Assay [3] concerns Ih in rabbit sinoatrial node. Particulars: rabbit sinoatrial node (Rocchetti et al. 1999); read-out: ED50 of Ih block previously reported; cited from earlier work.
Assay [4] relates to rat mild thermal injury model. Kind of assay: Spontaneous pain behaviors in rat mild thermal injury (first-degree burn) model. Format: in vivo. Particulars: 30 and 60 min after i.p. administration.

The structures appear in SMILES notation.

Turning to `CC[N+](CC)(CC)CC(=O)Nc1c(C)cccc1C` [QX-314], the “block of Ih” value with Ih is on record as “blocks Ih”.

In the case of `CCCCN1CCCCC1C(=O)Nc1c(C)cccc1C` (stereo not shown) [bupivacaine], the anti-hyperalgesic activity result in assay [1] is listed as “does not possess any anti-hyperalgesic activity”.

For `NCC1(CC(=O)O)CCCCC1` [gabapentin], the “suppression of CFA-induced tactile allodynia” value with CFA-injected rats was “not”.

Consider `CC(C)Cc1ccc(C(C)C(=O)O)cc1` (stereo not shown) [ibuprofen], for which the “suppression of CFA-induced tactile allodynia” value with CFA-injected rats is “suppressed”; in the assay on CFA-injected rats (listed as Ibuprofen), “some efficacy”.

With `CCN(CC)CC(=O)Nc1c(C)cccc1C` [lidocaine], in assay [2], the “reversibility of Ih block” value was “reversible”. Moreover, the EC50 is 23 µM in assay [2] (bath-applied at neutral pH, current at −134 mV, 3 cells, read-out: ED50 of concentration-dependent block of Ih) and 38.2 µM in assay [3].

In the case of `CN1CC[C@]23c4c5ccc(O)c4O[C@H]2[C@@H](O)C=C[C@H]3[C@H]1C5` [morphine], the “suppression of spontaneous pain behaviors” value in assay [4] is “near complete suppression”. The “suppression of CFA-induced tactile allodynia” value with CFA-injected rats was “suppressed”.

These data come from patent US20030022812A1, “Treating pain by targeting hyperpolarization-activated, cyclic nucleotide-gated channels” (priority 2001, published 2003).
